Series [1] is described as follows: in vitro dissolution test (paddle dissolution device, hard gelatin capsule with 30 mg UPA). The settings on record: for Percentages of UPA released, expressed relative to the initial amount of UPA contained per capsule: 900 ml medium at gastric pH, 0.1% SDS, 37°C, 50 rpm, mean of 3 experiments. It is filed as physicochemical. The protocol: The in vitro dissolution test can be carried out using any commercially available dissolution device comprising paddles. Example 1 hereinafter presents implementing conditions for determining the in vitro dissolution rate of a solid dispersion according to the invention. Briefly, an amount of solid dispersion representing 30 mg of active ingredient is placed in a gelatin capsule. This gel capsule is then placed in 900 ml of a medium buffered at gastric pH, comprising 0.1% of SDS, at 37±0.5° C., and subjected to stirring at 50 revolutions per minute (rpm) (speed of rotation of the paddles of the dissolution device). The dissolution of the active ingredient in the medium can be monitored by spectrophotometry, preferably at the maximum wavelength of absorbance. A gastric pH is typically a pH of 1 to 3.
For each solid dispersion obtained by means of the “solvent evaporation” method (§1.b) above), hard gelatin capsules containing an amount of solid dispersion corresponding to 30 mg of UPA per capsule were prepared.
The dissolution profiles were obtained as follows:
Each capsule containing a solid dispersion was placed in a bowl of the paddle dissolution device containing 900 ml of a dissolution medium. The dissolution medium is an aqueous solution buffered at gastric pH and comprising 0.1% by weight of SDS. The conditions for carrying out the in vitro dissolutions are the following: • Paddle rotation speed: 50 revolutions per minute (rpm); • Temperature: 37° C.±0.5° C.
The dissolution of the UPA was monitored by spectrophotometry.
By way of control experiment, a gelatin capsule containing 30 mg of micronized ulipristal acetate was used. For each solid dispersion evaluated, the dissolution experiment was reproduced 3 times.

The test system of the next series is uterine fibromas. The settings on record: chronic administration, 5 mg or 10 mg per day; cited from earlier work.
For series [2] the following is noted: single dose of 30 mg, within 120 hours following unprotected or poorly protected sexual intercourse; cited from earlier work.

As for `CC(=O)O[C@]1(C(C)=O)CCC2C3CCC4=CC(=O)CCC4=C3[C@@H](c3ccc(N(C)C)cc3)C[C@@]21C` (stereo partly drawn) [Micronized UPA, 17α-acetoxy-11β-[4-(N,N-dimethylamino)phenyl]-19-norpregna-4,9-diene-3,20-dione], in series [1] (t=20 min as stated in the text, capsule), the “percentage of ulipristal acetate released into the medium” value was “approximately 42%”. In addition, the “Percentages of UPA released, expressed relative to the initial amount of UPA contained per capsule” value in series [1] (time 0 min) was 0%; in series [1] (time 1 min) it was 0.23%; in series [1] (time 5 min), 5.69%; in series [1] (time 7.5 min), 15.28%; in series [1] (time 10 min), 21.73%; in series [1] (time 15 min), 29.46%. Also, the “Percentages of UPA released, expressed relative to the initial amount of UPA contained per capsule” value in series [1] (time 20 min) came out at 35.2%; in series [1] (time 30 min) it was 42.14%; in series [1] (time 45 min), 49.98%; in series [1] (time 60 min) it was 55.62%. The “symptoms associated with uterine fibromas” value in the series on uterine fibromas is on record as “significantly reduce the symptoms associated with uterine fibromas”. The “therapeutic benefit versus the reference treatment leuprolide acetate” value in the series with uterine fibromas was “greater than that of the reference treatment”. Further, in series [2], the “prevention of unwanted pregnancy” value is “makes it possible to prevent an unwanted pregnancy”.

The values are drawn from patent US20160213684A1, “SOLID DISPERSION OF A SELECTIVE MODULATOR OF THE PROGESTERONE RECEPTOR” (LABORATOIRE HRA-PHARMA, priority 2012, published 2016).
